Assays:
[1] = tested on: coagulase-negative Staphylococcus; assay: Growth in carbon-starved M9 media (O.D.); type: cell-based; conditions: M9 media supplemented at 100 mM
Protocol: (§1) FIGS. 5(A-G). […] A, B and C. Growth of P. aeruginosa (A), S. aureus, (B), and coagulase-negative Staphylococcus (C) were measured as O. D. M9 media alone is indicated by open triangle. Xylitol (closed circle), or succinate, mannitol, or sucrose (open circles), were added to M9 media at 100 mM as indicated. D. Nasal swabs were collected and cultured for 3 days in Lauria-Bertani media (open circles), in minimal M9 media (open squares), or in M9 media supplemented with 100 mM xylitol (closed circles). E, F and G. P. aeruginosa (E), S. aureus (F), and coagulase-negative Staphylococcus (G) were cultured in Lauria-Bertani media alone (open triangles), Lauria-Bertani media with 100 mM xylitol (closed circles), and Lauria-Bertani media containing tobramycin or levofloxacin (open circles).
(§2) To test the effect of xylitol on growth of different airway pathogens in a carbon-starved media, P. aeruginosa, S. aureus, and coagulase-negative Staphylococcus were grown overnight in Lauria-Bertani medium. The bacteria were then centrifuged and resuspended in M9 media containing either 100 mM succinate, mannitol, or sucrose, respectively, and grown overnight at 37° C. The bacteria were centrifuged and resuspended in M9 media alone. M9 media containing 100 mM xylitol, or 100 mM of the indicated metabolizable sugar, as positive control. The optical density (O.D.) was measured after 0, 1, 2, and 4 hours at 600 nm on a Beckman DU640 Spectrophotometer (Schaumburg, Ill.). To test the antibiotic effect of xylitol, P. aeruginosa, S. aureus, and coagulase-negative Staphylococcus were grown overnight in Lauria-Bertani medium. The bacteria were then centrifuged and resuspended in Lauria-Bertani media with and without 100 mM xylitol. As a positive control, antibiotics with specific activity to each of the bacteria were added to the media (40 μg/ml tobramycin or 40 μg/ml levofloxacin).

P. aeruginosa = assay: Growth in carbon-starved M9 media (O.D.); type: cell-based; conditions: M9 media supplemented at 100 mM
Protocol: as §1, §2

[2] = tested on: bacteria from the nasal surface; assay: Growth of normal nasal flora from nasal swabs in M9 media; type: cell-based; conditions: M9 media with 100 mM xylitol, 72 hours at 37° C.
Protocol: FIGS. 5(A-G). Effect of xylitol on growth of different airway pathogens. A, B and C. Growth of P. aeruginosa (A), S. aureus, (B), and coagulase-negative Staphylococcus (C) were measured as O. D. M9 media alone is indicated by open triangle. Xylitol (closed circle), or succinate, mannitol, or sucrose (open circles), were added to M9 media at 100 mM as indicated. D. Nasal swabs were collected and cultured for 3 days in Lauria-Bertani media (open circles), in minimal M9 media (open squares), or in M9 media supplemented with 100 mM xylitol (closed circles). E, F and G. P. aeruginosa (E), S. aureus (F), and coagulase-negative Staphylococcus (G) were cultured in Lauria-Bertani media alone (open triangles), Lauria-Bertani media with 100 mM xylitol (closed circles), and Lauria-Bertani media containing tobramycin or levofloxacin (open circles).
To test the effect of xylitol on growth of normal nasal flora in a carbon-starved media, nasal swabs were obtained from 3 normal volunteers and the swabs were inoculated into M9 media alone, M9 with 100 mM xylitol, or Lauria-Bertani media. The media were incubated at 37° C. for 72 hours and the O.D. were recorded.
It was tested whether xylitol would support bacterial growth. P. aeruginosa were placed in M9 media, which lacks a carbon source. […] In contrast, there was no growth of P. aeruginosa when M9 media was supplemented with xylitol. […]

[3] = cited from earlier work
[4] = in chewing gum, lozenges, or syrup; cited from earlier work

OC[C@@H](O)[C@H](O)[C@@H](O)CO [xylitol]
growth of coagulase-negative Staphylococcus [1]: failed to support growth
growth of P. aeruginosa (P. aeruginosa): no growth
growth of bacteria from nasal swabs [2]: no growth
toxicity observed after intravenous delivery ([3]; 5-50% solution in water at 1-4.5 g/Kg intravenously, changes reversible): increases in serum uric acid and elevated liver enzymes
adverse effect in children ([3]; delivered in large amounts): osmotic diarrhea
decrease in incidence of acute otitis media [4]: 20-40%

Source: patent US6716819B2, “Use of xylitol to reduce ionic strength and activate endogenous antimicrobials for prevention and treatment of infections” (University of Iowa Research Foundation, priority 2000, dated 2004)
